# Test results published in PMC12257390, “Characterization of Clinically Evaluated Small-Molecule Inhibitors of PD-L1 for Immunotherapy” (ACS Medicinal Chemistry Letters, 2025).
# Where two headings read alike, the source gives them in different places.
# How the values were obtained:
# PD-L1 [1] = target: T1, PD-L1 (Homo sapiens, UniProt Q9NZQ7); experiment: X-ray co-crystal structure ([…] Å), 1H NMR binding; IC50 from HTRF PD-1/PD-L1 disruption
# T1 construct: gene CD274
# PD-L1 [2] = target: T1, PD-L1; experiment: as above; remark: listed apart in the source
# T1 sequence (Q9NZQ7 19-290): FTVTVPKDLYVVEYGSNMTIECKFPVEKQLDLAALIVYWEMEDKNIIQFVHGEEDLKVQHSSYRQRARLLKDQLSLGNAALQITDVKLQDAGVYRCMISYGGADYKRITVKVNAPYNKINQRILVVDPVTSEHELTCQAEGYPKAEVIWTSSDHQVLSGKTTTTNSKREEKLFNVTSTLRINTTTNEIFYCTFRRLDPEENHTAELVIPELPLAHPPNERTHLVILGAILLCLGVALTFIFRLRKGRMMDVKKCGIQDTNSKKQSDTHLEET
IC50 (PD-L1 [1]),IC50 (PD-L1 [2]),Structure (SMILES)
2.59 ± 0.09 nM,–,Cc1c(Nc2nccc3cc(CN4CC[C@@H](O)C4)cnc23)cccc1-c1cccc(-c2nc3cc(CN4CC[C@@H](C(=O)O)C4)cc(C#N)c3o2)c1C [INCB086550]
–,6.88 ± 0.12 nM,Cc1c(C=Cc2cc(CNC(C)(CO)C(=O)O)ccc2C(F)(F)F)cccc1-c1ccc2c(c1)OCCO2 (centres unmarked) [MAX-10181]
